Measurements as given in US10294202B2, “Pyrrolidinones as herbicides” (FMC Corporation, priority 2013, dated 2019).
Read-outs that look alike come from different tables or passages of the source.

Legend:
barnyardgrass = assay: Test A pre-/postemergence herbicide test; format: in vivo, Echinochloa crus-galli; settings: for pest or weed control at 125 g/ha: 125 g ai/ha
Outline: (§1)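 Both application timings used compounds in a non-phytotoxic solvent plus surfactant. Pre-emergence: soil sprayed directly after seeding into loam/sand. Post-emergence: foliage of 2–10 cm seedlings (1–2 leaves) sprayed. Injury rated ~10 days later, 0–100.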

giant foxtail = assay: Test A pre-/postemergence herbicide test; format: in vivo, Setaria faberii; settings: for pest or weed control at 125 g/ha: 125 g ai/ha
Outline: as §1

ryegrass, Italian = assay: Test C pre-/postemergence herbicide test; format: in vivo, Lolium multiflorum
Outline: (§2)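 Herbicidal effect was judged by eye 13 to 15 days after treatment in the greenhouse, using a 0–100 scale against controls. Chemicals in a non-phytotoxic solvent with surfactant were sprayed onto planted loam/sand soil or onto plants 2 to 18 cm tall in a peat-based growing medium.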

corn = assay: Test C pre-/postemergence herbicide test; format: in vivo, Zea mays
Outline: as §2

crabgrass, large = assay: Test C pre-/postemergence herbicide test; format: in vivo, Digitaria sanguinalis
Outline: as §2

johnsongrass = assay: Test C pre-/postemergence herbicide test; format: in vivo, Sorghum halepense
Outline: as §2

lambsquarters = assay: Test C pre-/postemergence herbicide test; format: in vivo, Chenopodium album
Outline: as §2

nutsedge, yellow = assay: Test C pre-/postemergence herbicide test; format: in vivo, Cyperus esculentus
Outline: as §2

pigweed = assay: Test C pre-/postemergence herbicide test; format: in vivo, Amaranthus retroflexus
Outline: as §2

soybean = assay: Test C pre-/postemergence herbicide test; format: in vivo, Glycine max
Outline: as §2

[1] = Postemergence, 31 g ai/ha, scale 0 to 100 (0 no effect, 100 complete control)
[2] = Postemergence, 62 g ai/ha, scale 0 (no effect) to 100 (complete control)
[3] = Postemergence, 125 g ai/ha, scale 0 to 100 (0 no effect, 100 complete control)
[4] = Postemergence, 250 g ai/ha, scale 0 to 100 (0 no effect, 100 complete control)
[5] = Preemergence, 31 g ai/ha, scale 0 to 100, 0 is no effect and 100 is complete control
[6] = Preemergence, 62 g ai/ha, scale 0 to 100 (0 no effect, 100 complete control)
[7] = Preemergence, 125 g ai/ha, scale 0 to 100 (0 no effect, 100 complete control)

In the case of `O=C1NC[C@H](c2cccc(C(F)(F)F)c2)[C@H]1C(=O)Nc1ccccc1F` [Compound 204, (3R,4S)—N-(2-fluorophenyl)-2-oxo-4-[3-(trifluoromethyl)phenyl]-3-pyrrolidinecarboxamide], the pest or weed control at 125 g/ha (barnyardgrass; Echinochloa crus-galli, post-emergence, 240 h, Postemergence, 0 to 100 scale, 0 is no effect, 100 is complete control, read-out: Plant response rating, Barnyardgrass) is reported as 90%, the pest or weed control at 125 g/ha (barnyardgrass; Echinochloa crus-galli, pre-emergence, 240 h, visual rating, 0 to 100 scale, 0 no effect, 100 complete control, approximately 10 days, read-out: Plant response rating, Barnyardgrass) is reported as 90% and the pest or weed control at 500 g/ha (barnyardgrass; Echinochloa crus-galli, pre-emergence, 240 h, preemergence, 500 g ai/ha, 0 to 100 scale, 0 is no effect and 100 is complete control, read-out: Plant response rating, Barnyardgrass) is reported as 90%. The “Barnyardgrass plant response rating (0 to 100 scale, 0 is no effect, 100 is complete control)” value (barnyardgrass; Postemergence, 500 g ai/ha) was 90, the “Foxtail, Giant plant response rating (0 to 100 scale, 0 is no effect, 100 is complete control)” value (giant foxtail; Postemergence, 500 g ai/ha) was 90 and the pest or weed control at 125 g/ha (giant foxtail; Setaria faberi, post-emergence, 240 h, Postemergence, 0 to 100 scale, 0 is no effect, 100 is complete control, read-out: Plant response rating, Foxtail, Giant) was 90%. For the same compound, the pest or weed control at 125 g/ha (giant foxtail; Setaria faberi, pre-emergence, 240 h, visual rating, 0 to 100 scale, 0 no effect, 100 complete control, approximately 10 days, read-out: Plant response rating, Foxtail, Giant) was 90%, the pest or weed control at 500 g/ha (giant foxtail; Setaria faberi, pre-emergence, 240 h, preemergence, 500 g ai/ha, 0 to 100 scale, 0 is no effect and 100 is complete control, read-out: Plant response rating, Foxtail, Giant) was 90% and the “Plant response rating, Ryegrass, Italian” value (ryegrass, Italian; [1]) was 0. The “Plant response rating, Ryegrass, Italian” value (ryegrass, Italian; [2]) was 0, the “Plant response rating, Ryegrass, Italian” value (ryegrass, Italian; [3]) was 0 and the “Plant response rating, Ryegrass, Italian” value (ryegrass, Italian; [4]) was 15. For the same compound, the “Ryegrass, Italian plant response rating” value (ryegrass, Italian; [5]) was 0, the “Ryegrass, Italian plant response rating” value (ryegrass, Italian; [6]) was 0 and the “Plant response rating, Ryegrass, Italian” value (ryegrass, Italian; [7]) was 50. The “Plant response rating (scale of 0 to 100), Ryegrass, Italian” value (ryegrass, Italian; Preemergence, 250 g ai/ha) was 30, the “Plant response rating, Corn” value (corn; [1]) was 0 and the “Plant response rating, Corn” value (corn; [2]) was 0. For the same compound, the “Plant response rating, Corn” value (corn; [3]) was 0, the “Plant response rating, Corn” value (corn; [4]) was 40 and the “Corn plant response rating” value (corn; [5]) was 45. For the same compound, the “Corn plant response rating” value (corn; [6]) was 25, the “Plant response rating, Corn” value (corn; [7]) was 55 and the “Plant response rating (scale of 0 to 100), Corn” value (corn; Preemergence, 250 g ai/ha) was 75. For the same compound, the “Plant response rating, Crabgrass, Large” value (crabgrass, large; [1]) was 0, the “Plant response rating, Crabgrass, Large” value (crabgrass, large; [2]) was 50 and the “Plant response rating, Crabgrass, Large” value (crabgrass, large; [3]) was 70. For the same compound, the “Plant response rating, Crabgrass, Large” value (crabgrass, large; [4]) was 80, the “Crabgrass, Large plant response rating” value (crabgrass, large; [5]) was 90 and the “Crabgrass, Large plant response rating” value (crabgrass, large; [6]) was 90. The “Plant response rating, Crabgrass, Large” value (crabgrass, large; [7]) was 100, the “Plant response rating (scale of 0 to 100), Crabgrass, Large” value (crabgrass, large; Preemergence, 250 g ai/ha) was 95 and the “Plant response rating, Johnsongrass” value (johnsongrass; [1]) was 0. The “Plant response rating, Johnsongrass” value (johnsongrass; [2]) was 0, the “Plant response rating, Johnsongrass” value (johnsongrass; [3]) was 0 and the “Plant response rating, Johnsongrass” value (johnsongrass; [4]) was 0. For the same compound, the “Johnsongrass plant response rating” value (johnsongrass; [5]) was 10, the “Johnsongrass plant response rating” value (johnsongrass; [6]) was 40 and the “Plant response rating, Johnsongrass” value (johnsongrass; [7]) was 75. For the same compound, the “Plant response rating (scale of 0 to 100), Johnsongrass” value (johnsongrass; Preemergence, 250 g ai/ha) was 85, the “Plant response rating, Lambsquarters” value (lambsquarters; [1]) was 35 and the “Plant response rating, Lambsquarters” value (lambsquarters; [2]) was 65. The “Plant response rating, Lambsquarters” value (lambsquarters; [3]) was 75, the “Plant response rating, Lambsquarters” value (lambsquarters; [4]) was 30 and the “Lambsquarters plant response rating” value (lambsquarters; [5]) was 100. For the same compound, the “Lambsquarters plant response rating” value (lambsquarters; [6]) was 100, the “Plant response rating, Lambsquarters” value (lambsquarters; [7]) was 75 and the “Plant response rating (scale of 0 to 100), Lambsquarters” value (lambsquarters; Preemergence, 250 g ai/ha) was 100. The “Plant response rating, Nutsedge, Yellow” value (nutsedge, yellow; [1]) was 0, the “Plant response rating, Nutsedge, Yellow” value (nutsedge, yellow; [2]) was 0 and the “Plant response rating, Nutsedge, Yellow” value (nutsedge, yellow; [3]) was 0. For the same compound, the “Plant response rating, Nutsedge, Yellow” value (nutsedge, yellow; [4]) was 0, the “Nutsedge, Yellow plant response rating” value (nutsedge, yellow; [5]) was 0 and the “Nutsedge, Yellow plant response rating” value (nutsedge, yellow; [6]) was 0. The “Plant response rating, Nutsedge, Yellow” value (nutsedge, yellow; [7]) was 0, the “Plant response rating (scale of 0 to 100), Nutsedge, Yellow” value (nutsedge, yellow; Preemergence, 250 g ai/ha) was 0 and the “Plant response rating, Pigweed” value (pigweed; [1]) was 20. The “Plant response rating, Pigweed” value (pigweed; [2]) was 10, the “Plant response rating, Pigweed” value (pigweed; [3]) was 10 and the “Plant response rating, Pigweed” value (pigweed; [4]) was 10. The “Pigweed plant response rating” value (pigweed; [5]) was 0, the “Pigweed plant response rating” value (pigweed; [6]) was 0 and the “Plant response rating, Pigweed” value (pigweed; [7]) was 0. For the same compound, the “Plant response rating (scale of 0 to 100), Pigweed” value (pigweed; Preemergence, 250 g ai/ha) was 75, the “Plant response rating, Soybean” value (soybean; [1]) was 0 and the “Plant response rating, Soybean” value (soybean; [2]) was 0. For the same compound, the “Plant response rating, Soybean” value (soybean; [3]) was 0, the “Plant response rating, Soybean” value (soybean; [4]) was 5 and the “Soybean plant response rating” value (soybean; [5]) was 5. The “Plant response rating, Soybean” value (soybean; [7]) was 5 and the “Plant response rating (scale of 0 to 100), Soybean” value (soybean; Preemergence, 250 g ai/ha) was 10.
